# In patent US20100316628A1, “AGENTS AND METHODS FOR TREATING RESPIRATORY DISORDERS” (THE GENERAL HOSPITAL CORPORATION, priority 2008, published 2010):
# Entries after “also recorded” stand apart in the source; their conditions may differ.
# Key:
# clear cells [1] = test: In vivo luminal microperfusion of cauda epididymidis; quantification of V-ATPase apical membrane accumulation / microvilli elongation in clear cells; design: species or system rat; details: for effect on ANGII-induced V-ATPase apical accumulation and microvilli elongation: 10 min pre-treatment, then ANGII 20 min with agent present, PD123319 1 μM, losartan 1 μM, ODQ 3 μM, L-NAME 100 μM; for extension of V-ATPase-labeled microvilli versus control: mean±SEM
# Protocol: (§1) Rats were anesthetized and the cauda epididymidis was luminally perfused in vivo, harvested and fixed in PLP, as described previously (Beaulieu et al., 2005; Pastor-Soler et al., 2003; Wong and Yeung, 1978).
# Immunofluorescence labeling was performed on cryostat sections, as described previously (Beaulieu et al., 2005; Pastor-Soler et al., 2003). Primary antibodies, the AGTR2 peptide and secondary antibodies used are listed in supplementary material. Slides were mounted in Vectashield (Vector Labs, Burlingame, Calif.) with or without DAPI. For confocal microscopy, nuclei were stained using TOPRO-3 iodide (Invitrogen, Carlsbad, Calif.). Immunostained sections were examined using a Nikon E800 microscope (Nikon Instruments, Melville, N.Y.). Digital images were acquired with IPLab Spectrum software (Scanalytics, Fairfax, Va.) and imported into Adobe Photoshop. Sections were also examined using a […] confocal microscope (Zeiss Laboratories). Z-series (0.1-μm interval) were imported into Volocity software (Improvision Inc., version 4.1) for 3D reconstruction and final animations were exported as Quicktime movies.
# The level of accumulation of V-ATPase in clear cell microvilli was quantified using IPLab software as described previously (Beaulieu et al., 2005; Pastor-Soler et al., 2003). 10 μm sections of microperfused cauda epididymidis were immunostained under identical conditions, and confocal images were acquired using the same parameters. The segmentation procedure of IPLab was used to measure the area of V-ATPase-positive microvilli, which was normalized against the length of apical pole of each cell (Beaulieu et al., 2005; Pastor-Soler et al., 2003). At least three epididymides from different animals were perfused for each condition, and a minimum of 10 cells/tissue were examined for a total of at least 30 cells/condition.
# clear cells [2] = test: Immunogold electron microscopy and quantification of V-ATPase gold labeling in clear cells of perfused epididymis; assay type: in vivo, rat; details: luminal ANGII 1 μM vs control
# Protocol: as §1
# Pieces of PLP-fixed epididymis were embedded at −45° C. using HM20 resin (Electron Microscopy Sciences, Hatfield, Pa.) in a Leica EM AFS, and ultrathin sections were cut, as described previously (Da Silva et al., 2007; Pastor-Soler et al., 2003). Sections were immunostained for the V-ATPase A subunit, followed by goat anti-rabbit IgG coupled to 15 nm gold (Ted Pella, Reading, Calif.). Grids were examined in a JEOL 1011 electron microscope. Images were acquired using an AMT digital imaging system.
# The number of V-ATPase associated gold particles on the apical membrane and microvilli was counted for each clear cell (Da Silva et al., 2007; Pastor-Soler et al., 2003). To determine the density of V-ATPase molecules along the apical membrane, the number of gold particles was divided by the length of apical membrane, including microvilli, of each cell. This value is referred to as “gold/μm apical membrane”. To determine the relative density of the V-ATPase at the cell surface, the number of gold particles was normalized for the width of the cell, measured at the base of the microvilli (gold/μm cell width).
# proximal VD = test: Detection of proton secretion in cut-open proximal VD with a self-referencing proton-selective electrode; design: species or system rat; details: for proton secretion (effect of the added agent): ANGII 1 μM added to the bath, then concanamycin A 1 μM
# Protocol: The proximal VD was cut open to expose the apical surface of the epithelium and anchored onto a custom-made chamber. Proton secretion was measured using a self-referencing proton-selective electrode, as described previously (Beaulieu et al., 2005; Breton et al., 1996; Smith et al., 2007).
compound,measurement,setting,value
O=c1onc2cnc3ccccc3n12 [ODQ],effect on ANGII-induced V-ATPase apical accumulation and microvilli elongation,clear cells [1],completely abolished
"angiotensin II (DRVYIHPF; Angiotensin-2; UniProt P01019 25-32, looked up) [ANGII, peptide hormone; agonist of AGTR1 and AGTR2 receptors]",extension of V-ATPase-labeled microvilli versus control,"clear cells [1]; ANGII 0.1 μM in luminal perfusate, 20 min",141±4%
same,extension of V-ATPase-labeled microvilli versus control,"clear cells [1]; ANGII 1 μM in luminal perfusate, 20 min",153±7%
same,V-ATPase-labeled microvilli seen by immunogold labeling,clear cells [2],longer and more numerous V-ATPase-labeled microvilli are detected
same,density of V-ATPase molecules in microvilli (Gold/μm apical membrane),clear cells [2]; P<0.0005,significant increase
same,total number of V-ATPase molecules located at the cell surface (Gold/μm cell width),clear cells [2]; P<0.0005,further amplified compared to control
same,proton secretion (effect of the added agent),proximal VD,sustained increase in proton secretion
same,increase of concanamycin-sensitive proton secretion compared to control,"proximal VD; ANGII 1 μM, measured 30 min after addition, n=7, P<0.05",68%
Cc1cc(Cn2cnc3c2C[C@@H](C(=O)O)N(C(=O)C(c2ccccc2)c2ccccc2)C3)ccc1N(C)C [PD123319],effect on ANGII-induced V-ATPase apical accumulation and microvilli elongation,clear cells [1],prevented the stimulatory effect of ANGII; also recorded: inhibited the effect of ANGII at both 0.1 and 1 μM concentrations
C/C=C/[C@H]1O[C@@](O)([C@@H](C)[C@H](O)[C@H](C)[C@H]2OC(=O)/C(OC)=C/C(C)=C/[C@@H](C)[C@@H](O)[C@@H](CC)[C@@H](O)[C@H](C)C/C(C)=C/C=C/[C@@H]2OC)C[C@@H](O[C@H]2C[C@@H](O)[C@H](OC(N)=O)[C@@H](C)O2)[C@@H]1C [concanamycin A],proton secretion (effect of the added agent),proximal VD,markedly inhibited; also recorded: marked inhibition
same,effect of pre-incubation on the proton secretion response to ANGII,"proximal VD; pre-incubation of the tissue for 10 min, data not shown",prevented the response to ANGII
CCCCc1nc(Cl)c(CO)n1Cc1ccc(-c2ccccc2-c2nn[nH]n2)cc1 [Losartan],effect on ANGII-induced V-ATPase apical accumulation and microvilli elongation,clear cells [1],no inhibitory effect
Nc1nc2c(nc(Sc3ccc(Cl)cc3)n2[C@@H]2O[C@@H]3COP(=O)(O)O[C@H]3[C@H]2O)c(=O)[nH]1 [p-cpt-cGMP],elongation of V-ATPase-rich microvilli compared to control,"clear cells [1]; 1 mM in luminal perfusate, 20 min",significant elongation; also recorded: marked elongation
